Where “and” joins values, the source holds several entries; their conditions need not be identical. Equal values may be shown once. Entries after “also recorded” stand apart in the source; their conditions may differ. Where a name gives a salt, the structure may show the parent alone.
Tests used:
Assay type in all cases: in vivo, human
GT3 HCV = assay: Part D: 600 mg QD for 7 days, HCV RNA change in non-cirrhotic GT3 HCV-infected patients; details: for Individual HCV RNA maximum change from baseline / Mean ± SD HCV RNA maximum change from baseline / Mean ± SD HCV RNA change from baseline to 24 h: Part D; for Individual HCV RNA maximum change from baseline / Mean ± SD HCV RNA maximum change from baseline: NC GT3, 600 mg/day QD 7 days; for Mean ± SD HCV RNA maximum change from baseline / Mean ± SD HCV RNA change from baseline to 24 h: N=6; for Mean ± SD HCV RNA change from baseline to 24 h: NC GT3, 600 mg/day
Protocol: (§1) Doses were administered as the Compound 2 salt base. The free base Compound 1 equivalent is often given in parenthesis. […]
(§2) HCV-infected patients were treatment-naïve with HCV RNA ≥5 log 10 IU/mL. HCV RNA was quantified using COBAS® AmpliPrep TaqMAN® v2.0 with LLQ of 15 IU/mL. Plasma drug levels were measured using LC-MS/MS. […] Cirrhosis was confirmed by prior liver biopsy or Fibroscan >12.5 kPa. […] Mean ages of enrolled subjects were 44, 39, and 56 years in the non-cirrhotic GT1b 600 mg dose cohort, non-cirrhotic GT3 cohort, and the cirrhotic cohort, respectively.

GT1b HCV [1] = assay: Part B: single ascending dose study, HCV RNA reduction in non-cirrhotic GT1b HCV-infected subjects
Protocol: as §2
Part A and Part B were previously conducted and described in WO 2018/144640. Part A and Part B were single ascending dose (SAD) studies.

[2] = Safety/tolerability in the study of Compound 2
Protocol: (§3) Doses were administered as the Compound 2 salt base. The free base Compound 1 equivalent is often given in parenthesis.
(§4) Part C was a randomized, double-blind, placebo-controlled MAD study divided into three cohorts. […] The dose escalation only proceeded following satisfactory review of the data.
However, this observation is consistent with previously published data showing rapid increase in lipids with HCV clearance upon initiation of DAA therapy in HCV-infected subjects.

HCV GT1, GT2, GT3 = assay: All 600 mg QD cohorts (Parts C/D/E) taken together, plasma HCV RNA
Protocol: as §3, §4, §2

GT1, GT2, or GT3 HCV = assay: Part E: 600 mg QD for 7 days, HCV RNA change in Child-Pugh A cirrhotic patients; details: for Mean Reduction After 24 hours: 600 mg; for Mean ± SD HCV RNA maximum change from baseline / Mean ± SD HCV RNA change from baseline to 24 h / Individual HCV RNA maximum change from baseline: Part E; for Mean ± SD HCV RNA maximum change from baseline: Child-Pugh A cirrhotic GT1/GT2/GT3, 600 mg/day QD 7 days; for Mean ± SD HCV RNA maximum change from baseline / Mean ± SD HCV RNA change from baseline to 24 h: N=6; for Mean ± SD HCV RNA change from baseline to 24 h: Child-Pugh A cirrhotic GT1/GT2/GT3, 600 mg/day
Protocol: as §1, §2

[3] = Plasma pharmacokinetics of Compound 1 and metabolite 1-7 (LC-MS/MS) in Parts C, D and E; details: based on plasma exposures
Protocol: as §3, §4, §2
Plasma levels of metabolite 1-7 were measured using LC-MS/MS.

GT1b HCV [4] = assay: Part C: multiple ascending dose study, 7 days QD, HCV RNA change in non-cirrhotic GT1 HCV-infected patients; details: for Mean ± SD HCV RNA maximum change from baseline / Individual HCV RNA maximum change from baseline / Mean ± SD HCV RNA change from baseline to 24 h: NC GT1b; for Mean ± SD HCV RNA maximum change from baseline / Mean ± SD HCV RNA change from baseline to 24 h: N=6
Protocol: as §3, §4, §2

[5] = GT1, Child-Pugh A, 600 mg QD 7 days, n=3
[6] = GT3, Child-Pugh A, 600 mg QD 7 days, n=1
[7] = Part C, 600 mg/day QD 7 days, listed as Compd 2

Compound: CNc1nc(N)nc2c1ncn2[C@@H]1O[C@H](CO[P@@](=O)(N[C@@H](C)C(=O)OC(C)C)Oc2ccccc2)[C@@H](O)[C@@]1(C)F [Compound 2, hemi-sulfate salt of isopropyl((S)-(((2R,3R,4R,5R)-5-(2-amino-6-(methylamino)-9H-purin-9-yl)-4-fluoro-3-hydroxy-4-methyltetrahydrofuran-2-yl)methoxy)(phenoxy)phosphoryl)-L-alaninate]
- HCV RNA < LOQ (15 IU/mL), subjects (GT3 HCV; GT3 non-cirrhotic, 600 mg QD 7 days, n=6): one subject achieved HCV RNA <LOQ within four days and 1/6
- Individual HCV RNA maximum change from baseline (GT3 HCV): 4.2 log10 IU/mL and 4.4 log10 IU/mL and 4.5 log10 IU/mL (2×) and 5.0 log10 IU/mL
- Mean ± SD HCV RNA maximum change from baseline (GT3 HCV): 4.5 log10 IU/mL
- Mean ± SD HCV RNA maximum change from baseline (GT3 HCV; listed as Compd 2): 4.5 ± 0.3 log10 IU/mL
- Individual HCV RNA maximum change from baseline (GT3 HCV; listed as Compd 2): 4.2 log10 IU/mL and 4.4 log10 IU/mL (2×) and 4.5 log10 IU/mL (2×) and 5.0 log10 IU/mL
- Mean ± SD HCV RNA change from baseline to 24 h (GT3 HCV): 2.4 log10 IU/mL
- Mean ± SD HCV RNA change from baseline to 24 h (GT3 HCV; listed as Compd 2): 2.3 ± 0.3 log10 IU/mL
- Individual Max Reduction of HCV RNA (GT1b HCV [1]; 600 mg Compound 2 (equivalent of 550 mg Compound 1)): 2.1 log10 IU/ml and 2.3 log10 IU/ml and 2.6 log10 IU/ml
- Mean Max Reduction of HCV RNA (GT1b HCV [1]; 600 mg Compound 2 (equivalent of 550 mg Compound 1), n=3): 2.3 log10 IU/ml
- Individual Max Reduction of HCV RNA (GT1b HCV [1]; Compound 2 equivalent of 92 mg Compound 1): 0.6 log10 IU/ml and 0.8 log10 IU/ml and 0.9 log10 IU/ml
- Mean Max Reduction of HCV RNA (GT1b HCV [1]; Compound 2 equivalent of 92 mg Compound 1, n=3): 0.8 log10 IU/ml
- Individual Max Reduction of HCV RNA (GT1b HCV [1]; Compound 2 equivalent of 275 mg Compound 1): 1.1 log10 IU/ml and 1.8 log10 IU/ml and 2.2 log10 IU/ml
- Mean Max Reduction of HCV RNA (GT1b HCV [1]; Compound 2 equivalent of 275 mg Compound 1, n=3): 1.7 log10 IU/ml
- Individual Max Reduction of HCV RNA (GT1b HCV [1]; Compound 2 equivalent of 368 mg Compound 1): 1.8 log10 IU/ml and 2.2 log10 IU/ml and 2.6 log10 IU/ml
- Mean Max Reduction of HCV RNA (GT1b HCV [1]; Compound 2 equivalent of 368 mg Compound 1, n=3): 2.2 log10 IU/ml
- serious adverse events, dose-limiting toxicities, premature discontinuations ([2]; cirrhotic and non-cirrhotic HCV-infected subjects, up to 600 mg): No serious adverse events (AEs), dose-limiting toxicities, or premature discontinuations were reported; also recorded: No serious adverse events, dose-limiting toxicities or premature discontinuations were observed
- lipid abnormalities (cholesterol and triglyceride increase) ([2]; compared to placebo): higher incidence of mostly low-grade lipid abnormalities
- ALT/AST values ([2]; during the treatment period): decreased over time
- AEs, laboratory parameters, ECGs and vital signs ([2]; in vivo): no other clinically relevant, dose-related patterns
- liver injury ([2]; in vivo): no findings suggestive of liver injury
- tolerability ([2]; up to 600 mg (salt form) for seven days): well tolerated
- reductions in plasma HCV RNA (HCV GT1, GT2, GT3; 600 mg QD, steady state, regardless of genotype or cirrhosis status): −4.5 log10 IU/mL
- plasma HCV RNA decrease within the first 24 h of dosing (HCV GT1, GT2, GT3; after the first 600 mg dose): up to 2.4 log10 IU/mL
- subjects achieving HCV RNA below the lower limit of quantitation (HCV GT1, GT2, GT3; cohorts receiving 600 mg QD, seven days of therapy): ~30%
- antiviral activity / HCV RNA change in cirrhotic compared with non-cirrhotic subjects (GT1, GT2, or GT3 HCV; 600 mg/day QD 7 days, Part E vs Parts C and D): similar
- HCV RNA < LOQ (15 IU/mL), subjects (GT1, GT2, or GT3 HCV; [5]): 1/3
- Mean Max Reduction (GT1, GT2, or GT3 HCV; [5]): 4.2 log10 IU/mL
- Mean Reduction After 24 hours (GT1, GT2, or GT3 HCV; GT1, Child-Pugh A, n=3): 2.4 log10 IU/mL
- activity against HCV genotypes in cirrhotic patients (GT1, GT2, or GT3 HCV; GT1, GT2, and GT3): active
- HCV RNA < LOQ (15 IU/mL), subjects (GT1, GT2, or GT3 HCV; [6]): 0/1
- Mean (Individual) Max Reduction (GT1, GT2, or GT3 HCV; [6]): 4.8 log10 IU/mL
- Mean Reduction After 24 hours (GT1, GT2, or GT3 HCV; GT3, Child-Pugh A, n=1): 2.2 log10 IU/mL
- Mean ± SD HCV RNA maximum change from baseline (GT1, GT2, or GT3 HCV): 4.6 log10 IU/mL and 4.5 log10 IU/mL
- Mean ± SD HCV RNA maximum change from baseline (GT1, GT2, or GT3 HCV; listed as Compd 2): 4.6 ± 0.5 log10 IU/mL
- Mean ± SD HCV RNA change from baseline to 24 h (GT1, GT2, or GT3 HCV): 2.4 log10 IU/mL
- Mean ± SD HCV RNA change from baseline to 24 h (GT1, GT2, or GT3 HCV; listed as Compd 2): 2.4 ± 0.2 log10 IU/mL
- Individual HCV RNA maximum change from baseline (GT1, GT2, or GT3 HCV; cirrhotic GT1b, 600 mg/day QD 7 days): 4.0 log10 IU/mL and 4.1 log10 IU/mL and 4.5 log10 IU/mL
- Individual HCV RNA maximum change from baseline (GT1, GT2, or GT3 HCV; cirrhotic GT1b, 600 mg/day QD 7 days, listed as Compd 2): GT1b: 4.0, log10 IU/mL and 4.1 log10 IU/mL and 4.5 log10 IU/mL
- Individual HCV RNA maximum change from baseline (GT1, GT2, or GT3 HCV; cirrhotic GT2, 600 mg/day QD 7 days): GT2: 4.8 log10 IU/mL
- Individual HCV RNA maximum change from baseline (GT1, GT2, or GT3 HCV; cirrhotic GT3, 600 mg/day QD 7 days, listed as Compd 2): 5.1 log10 IU/mL and 5.2 log10 IU/mL
- impact of mild hepatic impairment on PK [3]: did not significantly impact
- HCV RNA < LOQ (15 IU/mL), subjects (GT1b HCV [4]; GT1 non-cirrhotic, 600 mg QD 7 days, n=6): 3/6
- subjects achieving HCV RNA <LOQ (GT1b HCV [4]; Part C, 600 mg QD 7 days): 50%
- Mean ± SD HCV RNA maximum change from baseline (GT1b HCV [4]; Part C, 150 mg/day QD 7 days): 2.6 ± 1.1 log10 IU/mL
- Individual HCV RNA maximum change from baseline (GT1b HCV [4]; Part C, 150 mg/day QD 7 days, listed as Compd 2): 1.7 log10 IU/mL and 1.8 log10 IU/mL (2×) and 2.7 log10 IU/mL and 3.0 log10 IU/mL and 4.5 log10 IU/mL
- Mean ± SD HCV RNA change from baseline to 24 h (GT1b HCV [4]; Part C, 150 mg/day): 1.2 ± 0.3 log10 IU/mL
- Mean ± SD HCV RNA maximum change from baseline (GT1b HCV [4]; Part C, 300 mg/day QD 7 days): 4.0 ± 0.4 log10 IU/mL
- Individual HCV RNA maximum change from baseline (GT1b HCV [4]; Part C, 300 mg/day QD 7 days, listed as Compd 2): 3.4 log10 IU/mL and 3.7 log10 IU/mL and 3.9 log10 IU/mL and 4.2 log10 IU/mL (2×) and 4.5 log10 IU/mL
- Mean ± SD HCV RNA change from baseline to 24 h (GT1b HCV [4]; Part C, 300 mg/day): 1.9 ± 0.2 log10 IU/mL
- Individual HCV RNA maximum change from baseline (GT1b HCV [4]; Part C, 600 mg/day QD 7 days): 4.3 log10 IU/mL and 5.2 log10 IU/mL and 5.3 log10 IU/mL and 3.5 log10 IU/mL and 4.0 log10 IU/mL and 4.1 log10 IU/mL
- Mean ± SD HCV RNA maximum change from baseline (GT1b HCV [4]; [7]): 4.4 ± 0.7 log10 IU/mL
- Individual HCV RNA maximum change from baseline (GT1b HCV [4]; [7]): 3.5 log10 IU/mL and 4.0 log10 IU/mL and 4.1 log10 IU/mL and 4.3 log10 IU/mL and 5.2 log10 IU/mL and 5.3 log10 IU/mL
- Mean ± SD HCV RNA change from baseline to 24 h (GT1b HCV [4]; Part C, 600 mg/day): 2.1 log10 IU/mL
- Mean ± SD HCV RNA change from baseline to 24 h (GT1b HCV [4]; Part C, 600 mg/day, listed as Compd 2): 2.1 ± 0.2 log10 IU/mL

Reference: patent US11690860B2, “Treatment of HCV infected patients with cirrhosis” (Atea Pharmaceuticals, Inc., priority 2018, dated 2023)
